# From US20140378460A1, “COMPOSITIONS AND METHODS FOR TREATING NEURODEGENERATIVE DISEASE” (COGNITION THERAPEUTICS, INC., priority 2011, published 2014)
# Experiments:
# sigma-2 receptor [1] = conditions: 1 μM each; 18.4 nM [3H]-RHM-1
# [2] = tested on: caspase-3 in SKOV-3 human ovarian cancer cells; assay: Caspase-3 activity in tumor cells; type: cell-based
# [3] = tested on: hAPP transgenic mice (Swedish and London mutations); assay: Morris water maze in hAPP transgenic mice; type: in vivo, mouse; conditions: II 0.5 mg/kg/day; subcutaneous minipump
# Experimental: In this study, rather than preventing deficits from occurring, deficits that were already established were treated. These studies were performed pursuant to a service contract by scientists who were blind to the experimental conditions. […]
# The swim speed was analyzed as part of the Morris measurements to determine if there were any motor or motivational deficits. Our vehicle is a 5% DMSO/5% Solutol, 90% saline mixture. […] The average of three daily trials on each of four consecutive days were determined.
# Escape latency measurements from the Morris water test were taken.
# During the final four days of treatment, mice were tested to find the hidden platform in three trials/day. A computerized tracking system automatically quantified escape latency, or swim length.
# in vivo = conditions: male, C57BL/6, mouse, sc, 10 mg/kg
# Excerpt: A plasma calibration curve was generated.
# Subcutaneous compound administration was accomplished by […]. Per oral administration was accomplished by gastric gavage. Intravenous administration was accomplished via jugular catheter.
# A brain calibration curve was generated.
# sigma-2 receptor [4] = biological target: T1, sigma-2 receptor (Rattus norvegicus, UniProt Q5U3Y7); assay: Sigma-2 competitive radioligand binding, [3H]DTG with 300 nM (+)pentazocine, rat cerebral cortex membranes
# T1 sequence (Q5U3Y7 1-176): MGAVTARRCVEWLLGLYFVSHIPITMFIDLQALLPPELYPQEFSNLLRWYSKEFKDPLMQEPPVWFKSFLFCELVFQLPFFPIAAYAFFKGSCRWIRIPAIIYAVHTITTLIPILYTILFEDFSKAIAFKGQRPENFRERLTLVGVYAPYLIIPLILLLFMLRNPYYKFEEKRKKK
# Experimental: (§2) Reactions were terminated by rapid filtration through Whatman GF/C filters using a Brandel 12R cell harvester followed by two washes with ice-cold buffer. Radioactivity on the dried filter discs was measured using a liquid scintillation analyzer (Tri-Carb 2900TR; PerkinElmer Life and Analytical Sciences). The displacement curves were plotted and the Ki values of the test ligands for the receptor subtypes were determined using GraphPad Prism (GraphPad Software Inc., San Diego, Calif.). The percentage specific binding was determined by dividing the difference between total bound (disintegrations per minute) and nonspecific bound (disintegrations per minute) by the total bound (disintegrations per minute).
# D3(h) (agonist effect) = D3(h) (agonist effect) (Homo sapiens, UniProt P35462); assay: Receptor panel, block of downstream signaling; type: cell-based
# Sequence of D3(h) (agonist effect) (P35462 whole entry): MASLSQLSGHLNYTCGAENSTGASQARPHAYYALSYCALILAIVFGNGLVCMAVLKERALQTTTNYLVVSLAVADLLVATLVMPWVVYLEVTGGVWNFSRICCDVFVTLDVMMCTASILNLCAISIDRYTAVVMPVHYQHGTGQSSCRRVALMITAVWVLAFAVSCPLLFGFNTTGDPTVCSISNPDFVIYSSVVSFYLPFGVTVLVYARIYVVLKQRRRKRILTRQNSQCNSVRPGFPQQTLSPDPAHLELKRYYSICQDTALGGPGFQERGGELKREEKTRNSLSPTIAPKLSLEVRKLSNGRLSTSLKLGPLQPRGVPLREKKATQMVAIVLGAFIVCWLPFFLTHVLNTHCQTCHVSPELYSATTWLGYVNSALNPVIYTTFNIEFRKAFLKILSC
# Experimental: (§1) It was also tested for its ability to block downstream signaling induced by agonists or antagonists of a given human receptor.
# [5] = biological target: alpha 1A (h) (antagonist effect) (Homo sapiens, UniProt P35348); assay: Receptor panel, block of downstream signaling; type: cell-based; conditions: read-out: % Inhibition of Control
# Sequence of alpha 1A (h) (antagonist effect) (P35348 whole entry): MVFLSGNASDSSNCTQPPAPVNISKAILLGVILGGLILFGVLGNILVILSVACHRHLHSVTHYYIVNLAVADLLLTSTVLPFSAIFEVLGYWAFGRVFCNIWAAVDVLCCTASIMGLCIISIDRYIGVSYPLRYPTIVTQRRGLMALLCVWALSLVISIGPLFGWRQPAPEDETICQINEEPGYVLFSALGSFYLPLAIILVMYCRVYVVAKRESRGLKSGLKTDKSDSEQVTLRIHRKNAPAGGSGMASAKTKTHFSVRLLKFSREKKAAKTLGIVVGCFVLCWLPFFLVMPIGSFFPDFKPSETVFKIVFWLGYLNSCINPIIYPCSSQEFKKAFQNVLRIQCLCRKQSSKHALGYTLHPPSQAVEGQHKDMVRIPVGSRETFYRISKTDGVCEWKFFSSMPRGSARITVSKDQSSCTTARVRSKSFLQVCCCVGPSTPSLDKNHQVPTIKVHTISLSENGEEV
# Experimental: as §1
# [6] = tested on: Na+ channel (site 2) (antagonist radioligand); assay: Receptor panel, inhibition of binding
# [7] = tested on: caspase-3 in neuronal cultures; assay: Caspase-3 activity in neurons; type: cell-based
# neuronal cultures = assay: Neuronal nuclear intensity / morphology; conditions: 24 hours
# [8] = biological target: mu (MOP) (h) (agonist radioligand) (Homo sapiens, UniProt P35372); assay: Receptor panel, inhibition of binding
# Sequence of mu (MOP) (h) (agonist radioligand) (P35372 whole entry): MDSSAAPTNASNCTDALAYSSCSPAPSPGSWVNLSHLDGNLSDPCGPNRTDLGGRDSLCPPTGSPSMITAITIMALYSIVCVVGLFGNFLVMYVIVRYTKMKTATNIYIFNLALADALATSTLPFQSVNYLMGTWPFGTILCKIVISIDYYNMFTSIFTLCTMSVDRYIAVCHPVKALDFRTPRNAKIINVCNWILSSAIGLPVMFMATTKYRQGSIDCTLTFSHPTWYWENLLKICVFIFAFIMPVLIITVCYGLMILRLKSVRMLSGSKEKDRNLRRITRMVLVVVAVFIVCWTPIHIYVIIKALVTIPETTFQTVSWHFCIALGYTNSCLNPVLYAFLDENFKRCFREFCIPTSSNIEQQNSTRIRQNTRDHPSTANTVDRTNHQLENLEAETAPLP
# [9] = Genotoxicity (AMES, micronucleus, bacterial cytotox); conditions: 10 μM
# [10] = tested on: SKOV-3 human ovarian cancer cell line; assay: MTS tumor cell viability assay; type: cell-based
# HepG2 tumor cell line = assay: HepG2 toxicity; type: cell-based; conditions: 10 μM
# Sigma-1 receptors = Sigma-1 receptors (Homo sapiens, UniProt Q99720); assay: Sigma-1 competitive radioligand binding, [3H](+)pentazocine, Jurkat cell membranes
# Sequence of Sigma-1 receptors (Q99720 whole entry): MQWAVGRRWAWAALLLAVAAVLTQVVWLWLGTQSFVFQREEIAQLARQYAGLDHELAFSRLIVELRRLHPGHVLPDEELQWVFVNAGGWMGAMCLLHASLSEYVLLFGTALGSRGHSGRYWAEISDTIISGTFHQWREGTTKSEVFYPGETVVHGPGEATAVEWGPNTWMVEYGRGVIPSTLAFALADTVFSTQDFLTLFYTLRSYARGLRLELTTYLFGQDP
# Experimental: as §2
# [11] = tested on: Abeta oligomer-induced synapse loss in primary hippocampal neurons; assay: Synapse loss assay; type: cell-based, rat
# Experimental: In this assay, Abeta oligomers were brought in contact with mature primary neurons in culture and their binding was determined by immunohistochemistry (anti-Abeta antibody) and quantified by image processing. The amount of Abeta in neuronal dendrites is assessed by counting the number of labeled puncta on the neuritis. […] This labeling is associated with synapses, co-localizing with the post-synaptic scaffold protein PSD-95 (Lacor et al., '04). […] The number of synapses can also be quantified in this assay by immunofluorochemistry. Similar procedures for binding assays can be found in the literature. […] Review.
# Primary hippocampal neuronal culture was established as in the membrane trafficking assay above. […] Pretreatment with compounds to be tested lasted for 1 hr and addition of Abeta oligomers or no oligomer (vehicle alone) in a final concentration of 70 ul was followed by incubation for an additional 23 hrs.
# The plates were then washed 3× with PBS for 5 min each. The plates were blocked at RT for 1 hr in 5% goat serum and 0.5% Triton X-100 in PBS. […] Primary antibodies were incubated overnight at 4° C. The plates were then washed 3× with PBS for 5 min each. […] Secondary antibodies were incubated at RT for 1 hr. The plates were washed once with PBS. DAPI (4′,6-diamidino-2-phenylindole, Invitrogen) was then applied at 0.03 ug/ul and incubated at RT for 5 min, then washed with PBS.
# [12] = tested on: neurons and glia in culture; assay: In vitro neuronal and glial toxicity; type: cell-based; conditions: acute or chronic dosing, up to 50 μM, three days
# Excerpt: The sigma-2 receptor antagonists eliminated or reduced Abeta oligomer-induced changes in membrane trafficking.
# [13] = tested on: sigma 2 (agonist radioligand); assay: Receptor panel, inhibition of binding; conditions: Compound II 10 uM
# [14] = read-out: % Inhibition of Control
structure (smiles),measurement,setting,value
COc1cc(CCC(C)NCc2ccc(C(F)(F)F)cc2)ccc1O (centres unmarked) [Compound II],Displacement of [3H]-RHM-1,sigma-2 receptor [1],partially displace
same,Block of SV-119-induced caspase-3 activation in tumor cells,[2],do not block caspase-3 activation
same,Caspase-3 activity induced in tumor cells,[2],did not induce caspase-3 activity
same,Morris water maze performance versus vehicle-treated transgenic animals,[3],significant improvement in transgenic performance
same,AUC,in vivo,385 ng·h/mL
same,Cmax,in vivo,279 ng/mL
same,Tmax,in vivo,30 min
same,Ki,"sigma-2 receptor [4]; Ki at sigma-2 receptors, displacement of [3H]DTG/300 nM (+)-pentazocine, rat neocortex homogenate",9 nM
same,Ki,"sigma-2 receptor [4]; S2 binding Ki (nM), Table 11B",9 nM
same,Ki,"sigma-2 receptor [4]; Sigma 2 Binding Ki (nM), Table 2, own compounds",9 nM
same,Ki,"sigma-2 receptor [4]; Sigma Affinity (S2) nM, Table 11E, own compounds",9 nM
same,Other Targets: D3,D3(h) (agonist effect); Table 11E,"D3 (4 uM), Mu"
same,inhibition at 10 µM,D3(h) (agonist effect); [14],66%
same,inhibition at 10 µM,[5],56%
same,% Inhibition of Control,[6]; Compound II 10 uM,54%
same,Other Targets: Na + ch2,[6]; Table 11E,Na + ch2 (2 uM)
same,Block of SV-119-induced caspase-3 activation in neurons,[7],blocked caspase-3 activation
same,Caspase-3 activity induced in neurons,[7],did not induce caspase-3 activity
same,Nuclear morphology / nuclear intensity in neurons,neuronal cultures,did not decrease nuclear intensity
same,Other Targets: Mu opioid,[8]; Table 11E,"opioid (4 uM),"
same,inhibition at 10 µM,[8]; [14],60%
same,Genotoxicity,[9],no genotoxicity
same,IC50,"[10]; Homo sapiens, SK-OV-3, tumor cell viability, 48 hrs",150000 ± 12000 nM
same,Action,[10]; by EC50 relative to siramesine,Antagonist
same,HepG2 toxicity,HepG2 tumor cell line,66%
same,Ki,"Sigma-1 receptors; Ki at sigma-1 receptors, displacement of [3H]-(+)-pentazocine, human Jurkat cell membranes",500 nM
same,Ki,"Sigma-1 receptors; S1 binding Ki (nM), Table 11B",500 nM
same,Ki,"Sigma-1 receptors; Sigma 1 Binding Ki (nM), Table 2, own compounds",500 nM
same,Ki,"Sigma-1 receptors; Sigma Affinity (S1) nM, Table 11E, own compounds",500 nM
same,Effect on Abeta oligomer-induced synapse loss,[11],completely eliminated this synaptic regression
same,Abeta oligomer-induced synapse loss eliminated,[11]; 5 μM,100%
same,Block synapse loss,[11]; Table 11B,100%
same,Abeta oligomer-induced synapse loss eliminated / recovery,[11]; b801,100%
same,Neuronal or glial toxicity,[12],did not induce neuronal or glial toxicity
same,% Inhibition of Control,[13],89%
